From ChEMBL document CHEMBL1671682, “Inhibition of human immunodeficiency virus type 1 by triciribine involves the accessory protein nef” (Antimicrob Agents Chemother, 2010)

Key:
[1] = system: Human immunodeficiency virus 2; test: Antiviral activity against Human immunodeficiency virus 2 CDC 310319 infected in phytohemagglutininin and interleukin-2-stimulated PBMC assessed as inhibition of viral Reverse transcriptase by [3H]TTP incorporation assay; format: functional, organism-based
[2] = system: Human immunodeficiency virus 2; test: Antiviral activity against Human immunodeficiency virus 2 CDC 310342 infected in phytohemagglutininin and interleukin-2-stimulated PBMC assessed as inhibition of viral Reverse transcriptase by [3H]TTP incorporation assay; format: functional, organism-based
[3] = system: Simian immunodeficiency virus; test: Antiviral activity against simian immunodeficiency virus Mac251 infected in phytohemagglutininin and interleukin-2-stimulated PBMC assessed as inhibition of viral Reverse transcriptase by [3H]TTP incorporation assay; format: functional, organism-based
[4] = system: Simian immunodeficiency virus; test: Antiviral activity against simian immunodeficiency virus 69R infected in phytohemagglutininin and interleukin-2-stimulated PBMC assessed as inhibition of viral Reverse transcriptase by [3H]TTP incorporation assay; format: functional, organism-based
[5] = system: PBMC; test: Cytotoxicity against human PBMC assessed as cell viability at 10 uM by MTS assay; format: cell-based
[6] = system: PBMC; test: Cytotoxicity against human PBMC assessed as cell viability at 1 uM by MTS assay; format: cell-based
[7] = system: CEM-SS; test: Cytotoxicity against human CEM-SS cells by MTS assay; format: functional, cell-based
[8] = system: H9; test: Cytotoxicity against human H9 cells by MTS assay; format: functional, cell-based
[9] = system: Human immunodeficiency virus 1; test: Antiviral activity against Human immunodeficiency virus 1 D1 harboring Tyr127His mutation in nef protein infecting in CEM-SS cells assessed as inhibition of viral Reverse transcriptase by [3H]TTP incorporation assay
[10] = system: Human immunodeficiency virus 1; test: Antiviral activity against Human immunodeficiency virus 1 A7 harboring Tyr127His mutation in nef protein infecting in CEM-SS cells assessed as inhibition of viral Reverse transcriptase by [3H]TTP incorporation assay
[11] = system: Human immunodeficiency virus 1; test: Antiviral activity against Human immunodeficiency virus 1 A12 harboring Tyr127His, Asp174Asn and Arg178Lys mutations in nef protein infecting in CEM-SS cells assessed as inhibition of viral Reverse transcriptase by [3H]TTP incorporation assay
[12] = system: Human immunodeficiency virus 1; test: Antiviral activity against Human immunodeficiency virus 1 H10 harboring Tyr127His, Gly140Glu, Glu149Lys, Asp174Asn and Arg178Lys mutations in nef protein infecting in CEM-SS cells assessed as inhibition of viral Reverse transcriptase by [3H]TTP incorporation assay
[13] = Cytotoxicity against human AA5 cells by MTS assay; format: cell-based

Cc1cn([C@H]2C[C@H](N=[N+]=[N-])[C@@H](CO)O2)c(=O)[nH]c1=O [ZIDOVUDINE]
IC50 [1]: 0.2 nM | IC50 [2]: 1 nM | IC50 [3]: 10 nM | IC50 [4]: 0.5 nM | Activity [5]: Non-toxic | Activity [6]: Non-toxic | IC50 [7]: > 100 nM | IC50 [8]: > 100 nM | IC50 [9]: 15 nM | IC50 [10]: 28 nM | IC50 [11]: 80 nM | IC50 [12]: 40 nM | IC50 [13]: > 100 nM
